We go through one compound from article PMC9332470, “Production and Selection of Antibody–Antigen Pairs for the Development of Immunoenzyme Assay and Lateral Flow Immunoassay Methods for Carbofuran and Its Analogues” (Biosensors, 2022).

≈ marks a conversion by molar mass, not a printed value.

The subject of assay [1] is mAb with the immunogen BFNB-KLH. The following applies: homologous coating antigen BFNB-OVA; cited from earlier work.
A further assay relates to mAb 13C8. Description: indirect competitive ELISA (icELISA) with mAb 13C8. The format is binding, BALB/c mice. The protocol:
(§1) Microplates were coated with coating antigens. Different concentrations of the standard (50 µL) and the mAb (50 µL) were added to each well, and the plates were incubated for 20 min at 37 °C. The plates were washed with PBS (0.01 M, containing 0.05% (v/v) Triton X-100), 100 μL of goat anti-mouse IgG-HRP conjugate solution was added to each well, and the plates were incubated for 20 min at 37 °C. After the plates were washed with PBS (0.01 M, containing 0.05% Triton X-100, v/v), 100 µL of TMB single-component substrate solution was added to each well, followed by incubation at 37 °C for 10 min. Finally, the reaction was terminated, and the absorbance at 450 nm was measured by a microplate reader.
Taking the logarithm of the carbofuran concentration as the abscissa and (B/B0)% as the ordinate, the standard curves for ELISA and QD-LFIA were obtained based on the Morgan–Mercer–Flodin (MMF) model, which were fitted by CurveExpert 1.4.0 software (https://www.curveexpert.net, accessed on 15 July 2022). For the ELISA method, B and B0 are the absorbance of the sample well and blank well, respectively. For the QD-LFIA method, B and B0 are the T/C (fluorescence intensity of the test line/fluorescence intensity of the control line) of the sample and blank control, respectively.
(§2) The inhibition ratio (I%) was calculated as (B0-B)/B0 × 100%. IC50 is the concentration of the carbofuran at an I% of 50%, and the limit of detection (LOD) was determined as the concentration showing 10% of inhibition.
The cross-reactivities (CRs) of benfuracarb, carbosulfan, 3-hydroxy-carbofuran, metolcarb, carbaryl, isoprocarb and aldicarb with carbofuran were assessed by ELISA and QD-LFIA. CR was calculated as CR (%) = [IC50 (carbofuran)/IC50 (analogues)] × 100%.
The microplate was coated with the coating antigens DDB-BSA (1 µg/mL), DDB-OVA (0.5 µg/mL), MDA-BSA (0.2 µg/mL) and MDA-OVA (0.1 µg/mL), and the concentration of mAb 13C8 was 0.03 µg/mL. Carbofuran standards (0, 0.05, 0.15, 0.45, 1.35 and 4.05 ng/mL) were detected to obtain a standard curve, and the IC50 was calculated. […] In the icELISA used in this study, free antigen (carbofuran) in solution competed with the coating antigen on the microplate for antibody 13C8; therefore, the IC50 value was negatively correlated with the antibody-binding ability of free antigen competing with coating antigens.
The ELISA method was developed with the antibody 13C8–antigen MDA-BSA pair. Under the optimized coating antigen concentration (0.1 μg/mL), HRP-conjugated goat anti-mouse IgG concentration (1 μg/mL), antibody concentration (0.03 μg/mL) and working buffer parameters (5 mM PBS at pH 7.4), a standard curve was obtained with the concentration of carbofuran on the abscissa and the inhibition ratio (B/B0) on the ordinate.
On the technique in general: In an ELISA, binding on a coated surface is turned into a signal by an enzyme label.

Assay [2] concerns broad-specificity mAb with the immunogen BFNB-BSA. The note with it: cited from earlier work.
In another assay the test system is mAb 6D6. Description: ELISA reactivity of hybridoma supernatant, cell line 6D6. The format is binding, BALB/c mice. The note with it: cell line 6D6 supernatant, 50 ng/mL pesticide. Here is the method: (§3) The desired antibodies with the highest affinity were screened by icELISA with carbofuran as a competitive compound, and hybridoma cells were cloned by the limited dilution method. Then, the selected hybridoma cells were injected into mice for ascites production. Finally, the mAbs were purified by (NH4)2SO4 with saturation of 50% and further purified by an SPA column.
as §1, §2
(§4) Then, the reactivity of the supernatant of the six cell lines to 50 ng/mL carbofuran, benfuracarb and carbosulfan was assessed by ELISA, and the results are shown in Table 1. […] Because 13C8 had the highest reactivity with carbofuran, benfuracarb and carbosulfan among the six cell lines, it was injected into mice for ascites production, and the mAbs were purified by a protein A column for further experiments.

Another assay deals with mAb 12D6. Kind of assay: ELISA reactivity of hybridoma supernatant, cell line 12D6. The note with it: cell line 12D6 supernatant, 50 ng/mL pesticide. The class given is binding, BALB/c mice. The protocol:
as §3, §1, §2, §4

For assay [3], the system named is mAb with the immunogen BFNH-lactoferrin. The note with it: heterologous coating antigen BFOA-BSA; cited from earlier work.

For the compound `CNC(=O)Oc1cccc2c1OC(C)(C)C2` [carbofuran], the “IC50 (ic-ELISA)” value in assay [1] is recorded as 0.3 ng/mL (≈ 1.36 nM); in assay [2] it was 8.97 ng/mL (≈ 40.5 nM). The “CR (%) (ELISA)” value in the assay with mAb 13C8 (CR = IC50(carbofuran)/IC50(analogue) x 100%, optimized ELISA with mAb 13C8) amounted to 100.0%. Also, the “IC50 (ELISA)” value with mAb 13C8 (antibody 13C8, coating antigen DDB-BSA (1 µg/mL)) is on record as 0.19 ± 0.01 ng/mL (≈ 0.859 nM); with mAb 13C8 (antibody 13C8, coating antigen DDB-OVA (0.5 µg/mL)), 0.22 ± 0.02 ng/mL (≈ 0.994 nM); in the assay with mAb 13C8 (antibody 13C8, coating antigen MDA-BSA (0.2 µg/mL)) it was 0.20 ± 0.02 ng/mL (≈ 0.904 nM); with mAb 13C8 (antibody 13C8, coating antigen MDA-OVA (0.1 µg/mL)) it was 0.17 ± 0.01 ng/mL (≈ 0.768 nM); with mAb 13C8 (optimized ELISA, mAb 13C8 0.03 μg/mL, coating antigen 0.1 μg/mL, given as MDA-BSA and MDA-OVA, unit from text), 0.18 ± 0.03 ng/mL (≈ 0.814 nM); in assay [3] it was 1.4 ng/mL (≈ 6.33 nM). In addition, the “detection limit (ELISA)” value with mAb 13C8 (concentration showing 10% of inhibition, optimized ELISA) worked out at 0.02 ng/mL. Also, the “working range (ELISA)” value in the assay on mAb 13C8 (optimized ELISA) was 0.02 to 2.09 ng/mL. Further, in assay [2], the “CR(%) (ic-ELISA)” value is recorded as 100.0%. Also, the “Reactivity of mAb (I%)” value stood at 86% in the assay on mAb 6D6 and 84% in the assay on mAb 12D6.
